Experimental data reported in patent publication US20220281930A1, “COMPOSITIONS AND METHODS FOR THE TREATMENT OF PATHOLOGICAL PAIN AND ITCH” (DUKE UNIVERSITY, priority 2019, published 2022).

Assays:
N2a cultured cells = test: Neuronalization of N2a cultured cells; format: cell-based, mouse; conditions: KP 0.2 μM for 3 days
δ-cat S259 = test: Phosphoproteomics in rat primary cortical neurons, δ-cat; format: cell-based; conditions: 1 μM KP; after 1 h, sustained at 24 h
Protocol: Cultured rat primary cortical neurons were treated with either vehicle DMSO (0.1%) or 1 μM KP for 1 h/24 h. Cells were lysed in non-detergent-containing buffer (Tris.Cl pH8 50 mM, NaCl 150 mM, 0.5% Phosphatase Inhibitor (Pierce #88667) and Protease Inhibitor (Roche #11836153001)). 500 μL was removed and solid urea was added to a final concentration of 8M. Samples were sonicated for further solubilization. After clearing of insoluble material by centrifugation, protein concentration was measured by Bradford assay. 250 μg of total protein was removed from each sample and solubilization buffer was added to normalize all samples to 0.93 μg/μL protein. Samples were then spiked with bovine alpha-casein to 30 fmol/μg of total protein. Samples were reduced with 10 mM DTT at 32° C. for 45 min and then alkylated with 20 mM iodoacetamide at room temperature for 30 min. […]
TiO2 Enrichment. […] After cleanup using a C18 STAGE tip, and resuspension in 2% acetonitrile, 0.1% TFA, 10 mM citric acid samples were quantified.
Quantitative analysis of Phosphopeptide Enriched Samples. Quantitative LC-MS/MS was performed in singlicate (4 uL=33% of the total sample each injection) for phosphopeptide-enriched samples using a nanoAcquity UPLC system (Waters Corp) coupled to a Thermo QExactive Plus high resolution accurate mass tandem mass spectrometer (Thermo) via a nanoelectrospray ionization source. […]

δ-cat = test: Nuclear transfer of transfected human δ-cat in N2a cells; format: cell-based, mouse
Text: Plasmid containing human δ-catenin (CTNND2, NM_001288717) open reading frame was obtained from GeneCopeia (EX-A4285-M02) and cloned into pCMV-ENTER vector (Origene PS100001). Site-directed mutagenesis using Phusion DNA Polymerase enzyme (Thermofisher F549L) in conjunction with complementary primers bearing the specific mutation were used to generate the S276A […] mutation S276A. PCR was followed by Dpn1 enzyme digestion to remove parental plasmid DNA. All constructs were verified by sequencing. pCS-CMV-tdTomato plasmid was obtained from Addgene (cat. #30530).
To investigate the relevance of δ-cat residue S276, N2a neural cells were studied because these cells transfect at higher efficiency than primary cortical neurons. In our cultures, N2a cells expressed neuronal ßIII-tubulin in elongated processes as determined by immune-labeling as an indicator of their neuronal differentiation. […] This increase in nuclear transfer was very similar to the trafficking we recorded in primary cortical neurons, thus validating the cell line. […] Of note, there was no increase of nuclear transfer of δ-cat(S276A) upon KP treatment (FIG. 8C and FIG. 8D).

GSK3ß = GSK3ß (Homo sapiens, UniProt P49841); conditions: literature; cited from earlier work
GSK3ß, sequence (P49841 whole entry): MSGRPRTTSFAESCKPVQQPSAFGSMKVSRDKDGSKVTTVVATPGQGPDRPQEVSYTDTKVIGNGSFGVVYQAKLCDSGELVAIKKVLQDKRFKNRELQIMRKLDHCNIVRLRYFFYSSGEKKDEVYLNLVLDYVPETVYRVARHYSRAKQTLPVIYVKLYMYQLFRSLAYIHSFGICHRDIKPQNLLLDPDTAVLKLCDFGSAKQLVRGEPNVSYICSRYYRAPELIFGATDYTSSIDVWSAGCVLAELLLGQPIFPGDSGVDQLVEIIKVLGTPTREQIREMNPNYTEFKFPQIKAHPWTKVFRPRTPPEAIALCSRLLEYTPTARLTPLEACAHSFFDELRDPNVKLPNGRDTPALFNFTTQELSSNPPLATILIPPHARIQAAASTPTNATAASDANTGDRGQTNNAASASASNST

KCC2 = test: Immuno-cytochemistry morphometry of primary human cortical neurons, KCC2; format: cell-based; conditions: 400 nM KP
Protocol: The neuron-enriched cultures were established from fetal cortical specimens at 15-20 weeks of gestation. The protocols for tissue processing complied with all federal and institutional guidelines. The cultures were plated on PEI (polyethyleneimine solution) substrate and maintained in Neurobasal media supplemented with B27 as previously described (Pelsman et al., 2003, International journal of developmental neuroscience 21:117-124; Yeo et al., 2013, Proc Natl Acad Sci USA 110:4315-4320).
For immunostaining, the cultures were treated for 2-4 days with vehicle or 400 nM KP, fixed with 4% PFA at day 10, and processed for double-staining with anti-KCC2 and anti-synaptophysin or anti-NeuN (see Table 1).
The 0.34 micrometer confocal slices through entire cell layers at different optical fields (n=17-28 for each group) of the fixated cultures were acquired using a Zeiss LSM700 confocal microscope.
Image Z-stacks were analyzed using Imaris 9.2.1 software. Optical density intensity sum values for each stack/channel were divided by corresponding data volumes and the resulting values were normalized to the number of specifically labeled cells within each stack. There were no significant differences in the number of cells between vehicle and KP-treated groups.

In the case of `O=C1Cc2c([nH]c3ccc(Br)cc23)-c2ccccc2N1` [kenpaullone, 9-bromo-7,12-dihydro-indolo [3,2-d] [1]benzazepin-6(5H)-one], the neuronal differentiation (N2a cultured cells) is reported as “increased process formation”, the “S259 phosphorylation of δ-cat” value (δ-cat S259) is reported as “significant de-phosphorylation” and the “nuclear transfer of δ-cat” value (δ-cat; cells transfected with δ-cat(S276A), KP treatment) is reported as “had no effect”. The “nuclear transfer of δ-cat” value (δ-cat; cells transfected with δ-cat(WT), KP vs vehicle) was “significantly enhances”, the “potency of GSK3ß inhibition among known targets” value (GSK3ß) was “highest potency” and the “increased KCC2 expression relative to vehicle” value (KCC2) was 62%.
